Test results: patent US20250326769A1, “HETEROAROMATIC MACROCYCLIC ETHER CHEMOTHERAPEUTIC AGENTS” (Nuvalent, Inc., priority 2022, published 2025)

Tests used:
Assay type in all cases: cell-based
[1] = biological target: Ba/F3 EML4-ALK v1 I1171N (Homo sapiens (Human), UniProt Q9HC35+Q9UM73, I1171N); test: Ba/F3 cell proliferation assay, EML4-ALK v1 I1171N; conditions: for IC50: Ba/F3 stable cells, 72 hours, CellTiter-Glo; for ETV6-TRKB / EML4-ALK v1 I1171N: TRKB selectivity, ratio of Ba/F3 IC50 values
Ba/F3 EML4-ALK v1 I1171N, sequence (Q9UM73 other isoform, or with tags, fused parts or gaps I1171N): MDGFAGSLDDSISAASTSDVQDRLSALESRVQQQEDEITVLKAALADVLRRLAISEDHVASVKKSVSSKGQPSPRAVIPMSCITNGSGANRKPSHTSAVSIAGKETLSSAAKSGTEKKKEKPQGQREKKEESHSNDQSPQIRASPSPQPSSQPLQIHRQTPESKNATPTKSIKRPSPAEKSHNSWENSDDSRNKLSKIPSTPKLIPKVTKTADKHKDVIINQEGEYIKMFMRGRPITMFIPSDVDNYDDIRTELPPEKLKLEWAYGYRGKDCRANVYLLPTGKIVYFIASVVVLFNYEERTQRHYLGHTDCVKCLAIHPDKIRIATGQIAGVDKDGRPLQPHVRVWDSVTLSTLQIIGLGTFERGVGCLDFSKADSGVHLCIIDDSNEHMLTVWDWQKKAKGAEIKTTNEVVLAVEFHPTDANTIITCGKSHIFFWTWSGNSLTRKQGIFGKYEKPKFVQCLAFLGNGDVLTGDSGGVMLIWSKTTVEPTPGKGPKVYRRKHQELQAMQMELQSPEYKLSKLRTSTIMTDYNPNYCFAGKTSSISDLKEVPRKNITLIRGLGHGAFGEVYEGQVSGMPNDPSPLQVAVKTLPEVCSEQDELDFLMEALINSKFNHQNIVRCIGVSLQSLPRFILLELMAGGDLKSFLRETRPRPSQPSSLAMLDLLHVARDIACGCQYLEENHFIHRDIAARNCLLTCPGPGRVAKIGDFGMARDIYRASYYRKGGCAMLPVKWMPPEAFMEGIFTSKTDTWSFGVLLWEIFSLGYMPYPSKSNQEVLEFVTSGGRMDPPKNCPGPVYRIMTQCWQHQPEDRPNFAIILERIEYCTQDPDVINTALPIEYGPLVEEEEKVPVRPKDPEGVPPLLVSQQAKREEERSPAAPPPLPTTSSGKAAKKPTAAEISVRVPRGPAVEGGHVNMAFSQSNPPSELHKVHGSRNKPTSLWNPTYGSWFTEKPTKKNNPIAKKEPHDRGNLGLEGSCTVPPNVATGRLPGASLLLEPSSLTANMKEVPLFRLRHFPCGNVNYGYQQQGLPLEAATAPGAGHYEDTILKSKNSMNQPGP
Text: (§1) Genes encoding EML4-ALK v1 (variant 1), EML4-ALK v1 G1202R, EML4-ALK v1 I1171IN, EML4-ALK v1 D1203N, EML4-ALK v1 I1171N/D1203N, and ETV6-TRKB were synthesized at GeneRay, cloned into the retroviral construct pMSCV-puro (Biovector), and packaged into retroviral particles. The virus was used to infect Ba/F3 cells (RIKEN) at multiplicity of infection=1 for 1 day. Infected cells were rescued in media (RPMI-1640 with 10% fetal bovine serum and 1% streptomycin and penicillin) supplemented with mouse IL-3 (10 ng/mL) for 2 days, and stable cell lines were selected by IL-3 withdrawal and puromycin (0.8 μg/mL) for 7 days. Monoclones were selected by single-cell dilution in IL-3-free medium containing puromycin (0.8 μg/mL). Transformation of desired genes was confirmed by Sanger sequencing and western blot using the following antibodies: ALK (CST #3633) and pan-TRK (Abcam #76291).
(§2) Stable cells were plated in a 384-well plate. Test compounds were then added in a 3-fold dilution series and incubated for 72 hours. CellTiter-Glo reagent (Promega) was added. Luminescence was measured on a plate reader. Half-maximal inhibitory concentration (ICso) was calculated from percent inhibition and inhibitor concentration using four-parameter logistic regression. Compound potency can be interpreted by binning IC50 values: bin A for high potency, 0.1 nM IC50<50 nM; bin B for medium potency, 50 nM<IC50<500 nM; and bin C for low potency, IC50>500 nM. […] Exemplary data is given in Table 4 (nd is not determined).
(§3) Ba/F3 proliferation is driven by the transduced oncogenes in the same way that cancer cell proliferation in humans is driven by the expression of equivalent oncogenes.
(§4) TRKB selectivity was calculated by dividing a compound's TRKB potency by its primary target potency (e.g., ETV6-TRKB IC50/EML4-ALK v1 IC50). Compound selectivity can be interpreted by binning ratio values: bin A for very high selectivity, ratio≥30-fold; bin B for high selectivity, ratio≥10-fold but<30; bin C for moderate selectivity, ratio≥1 but<10; and bin D for low selectivity, ratio<1. […] (nd=not determined).

[2] = biological target: Ba/F3 EML4-ALK v1 I1171N/D1203N (Homo sapiens (Human), UniProt Q9HC35+Q9UM73, D1203N/I1171N); test: Ba/F3 cell proliferation assay, EML4-ALK v1 I1171N/D1203N; conditions: for IC50: Ba/F3 stable cells, 72 hours, CellTiter-Glo; for ETV6-TRKB / EML4-ALK v1 I1171N/D1203N / Selectivity for Ba/F3 EML4-ALK v1 I1171N-D1203N IC50 over Ba/F3 ETV6-TRKB IC50: TRKB selectivity, ratio of Ba/F3 IC50 values; for Selectivity for Ba/F3 EML4-ALK v1 I1171N-D1203N IC50 over Ba/F3 ETV6-TRKB IC50: Table 6 bins
Ba/F3 EML4-ALK v1 I1171N/D1203N, sequence (Q9UM73 other isoform, or with tags, fused parts or gaps I1171N/D1203N): as the sequence (Q9UM73 other isoform, or with tags, fused parts or gaps I1171N) above, with D642N counted along it
Text: as §1, §2, §3, §4
Additional exemplified compounds were also tested against ALK-INDN and TRKB. The TRKB selectivity was calculated by dividing a compound's TRKB potency by its primary target potency (e.g., ETV6-TRKB IC50/EMIL4-ALK I1171N-D1203N v1 IC50). Compound selectivity can be interpreted by binning ratio values: bin AA for the selectivity with the ratio≥30-fold; bin BB for the selectivity with the ratio≥10-fold but<30; bin CC for the selectivity with the ratio≥5 but<10; bin DD for the selectivity with the ratio≥1 but<5; and bin EE for the selectivity with the ratio<1.

[3] = biological target: Ba/F3 ETV6-TRKB (Homo sapiens, UniProt Q16620); test: Ba/F3 cell proliferation assay, ETV6-TRKB; conditions: Ba/F3 stable cells, 72 hours, CellTiter-Glo; read-out: ETV6-TRKB IC50
Ba/F3 ETV6-TRKB, sequence (Q16620 32-822 limits assumed, change not shown): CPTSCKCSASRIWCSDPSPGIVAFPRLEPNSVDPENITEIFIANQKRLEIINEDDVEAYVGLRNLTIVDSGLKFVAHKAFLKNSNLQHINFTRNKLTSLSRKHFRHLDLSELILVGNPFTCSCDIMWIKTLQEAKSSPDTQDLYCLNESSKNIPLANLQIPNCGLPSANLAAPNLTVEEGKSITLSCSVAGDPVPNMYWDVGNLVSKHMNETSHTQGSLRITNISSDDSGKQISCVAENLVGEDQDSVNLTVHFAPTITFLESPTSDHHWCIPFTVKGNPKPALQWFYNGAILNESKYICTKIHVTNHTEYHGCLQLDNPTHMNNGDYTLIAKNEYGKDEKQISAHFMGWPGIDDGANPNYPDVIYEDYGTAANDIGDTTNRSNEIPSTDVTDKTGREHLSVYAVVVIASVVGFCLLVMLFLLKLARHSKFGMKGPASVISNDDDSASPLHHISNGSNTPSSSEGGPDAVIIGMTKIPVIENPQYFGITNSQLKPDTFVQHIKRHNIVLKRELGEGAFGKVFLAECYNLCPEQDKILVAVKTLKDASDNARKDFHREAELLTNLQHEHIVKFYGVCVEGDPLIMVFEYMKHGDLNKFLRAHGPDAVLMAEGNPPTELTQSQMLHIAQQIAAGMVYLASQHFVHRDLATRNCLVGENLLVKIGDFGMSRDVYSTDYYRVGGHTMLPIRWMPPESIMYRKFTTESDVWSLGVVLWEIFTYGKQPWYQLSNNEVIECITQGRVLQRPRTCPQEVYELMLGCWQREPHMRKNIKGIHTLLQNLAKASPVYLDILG
Text: as §1, §2, §3

SMILES	IC50 [1] [nM]	ETV6-TRKB / EML4-ALK v1 I1171N [1]	IC50 [2] [nM]	ETV6-TRKB / EML4-ALK v1 I1171N/D1203N [2]	Selectivity for Ba/F3 EML4-ALK v1 I1171N-D1203N IC50 over Ba/F3 ETV6-TRKB IC50 [2]	IC50 [3] [nM]
C[C@H]1Oc2cc(cnc2N)-c2c(cnn2CC2CC2)C(=O)c2cccnc2-c2ccc(F)cc21 [Example 29, (R)-23-amino-3-(cyclopropylmethyl)-17-fluoro-20-methyl-21-oxa-3,4, 12,24-tetraazapentacyclo[20.3.1.0^2,^6.0^8,^13.0^14,^19]hexacosa-1(25),2(6),4,8(13),9,11,14,16,18,22(26),23-undecaen-7-one]	> 500	B (bin B for high selectivity, ratio≥10-fold but<30)	> 500	B (bin B for high selectivity, ratio≥10-fold but<30)	BB (bin BB for the selectivity with the ratio≥10-fold but<30)	> 500
CCn1nc(C(=O)N(C)C)c2c1-c1cnc(N)c(c1)O[C@H](C)c1cc(F)cc(F)c1-c1ncccc1C2 [Example 46, N,N-dimethyl-(R)-23-amino-3-ethyl-15,17-difluoro-20-methyl-21-oxa-3,4,12,24-tetraazapentacyclo[20.3.1.0^2,^6.0^8,^13.0^14,^19]hexacosa-1(25),2(6),4,8(13),9,11,14,16,18,22(26),23-undecaene-5-carboxamide]	50 to 500	C (bin C for moderate selectivity, ratio≥1 but<10)	0.1 to 50	B (bin B for high selectivity, ratio≥10-fold but<30)	–	50 to 500
C[C@H]1Oc2cc(cnc2N)-c2c(c(C(=O)N(C)C)nn2C2CCC2)Cc2cccnc2-c2ccc(F)cc21 [Example 48, N,N-dimethyl-(R)-23-amino-3-cyclobutyl-17-fluoro-20-methyl-21-oxa-3,4,12,24-tetraazapentacyclo[20.3.1.0^2,^6.0^8,^13.0^14,^19]hexacosa-1(25),2(6),4,8(13),9,11,14,16,18,22(26),23-undecaene-5-carboxamide]	0.1 to 50	–	0.1 to 50	–	–	50 to 500
CCn1nc2c(c1C#N)-c1cnc(N)c(c1)O[C@H](C)c1cc(F)ccc1-c1ncccc1C2=O [Example 50, (R)-23-amino-4-ethyl-17-fluoro-20-methyl-7-oxo-21-oxa-4,5,12,24-tetraazapentacyclo[20.3.1.0^2,^6.0^8,^13.0^14,^19]hexacosa-1(25),2,5,8,10,12,14,16,18,22(26),23-undecaene-3-carbonitrile]	0.1 to 50	A (bin A for very high selectivity, ratio≥30-fold)	0.1 to 50	A (bin A for very high selectivity, ratio≥30-fold)	AA (bin AA for the selectivity with the ratio≥30-fold)	50 to 500
CC(C)n1nc2c(c1C#N)-c1cnc(N)c(c1)O[C@H](C)c1cc(F)ccc1-c1ncccc1C2=O [Example 51, (R)-23-amino-17-fluoro-4-isopropyl-20-methyl-7-oxo-21-oxa-4,5,12,24-tetraazapentacyclo[20.3.1.0^2,^6.0^8,^13.0^14,^19]hexacosa-1(25),2,5,8,10,12,14,16,18,22(26),23-undecaene-3-carbonitrile]	0.1 to 50	A (bin A for very high selectivity, ratio≥30-fold)	0.1 to 50	A (bin A for very high selectivity, ratio≥30-fold)	AA (bin AA for the selectivity with the ratio≥30-fold)	50 to 500
COCCn1nc2c(c1C#N)-c1cnc(N)c(c1)O[C@H](C)c1cc(F)ccc1-c1ncccc1C2=O [Example 52, (R)-23-amino-17-fluoro-4-(2-methoxyethyl)-20-methyl-7-oxo-21-oxa-4,5,12,24-tetraazapentacyclo[20.3.1.0^2,^6.0^8,^13.0^14,^19]hexacosa-1(25),2,5,8,10,12,14,16,18,22(26),23-undecaene-3-carbonitrile]	0.1 to 50	A (bin A for very high selectivity, ratio≥30-fold)	0.1 to 50	A (bin A for very high selectivity, ratio≥30-fold)	AA (bin AA for the selectivity with the ratio≥30-fold)	50 to 500
C[C@H]1Oc2cc(cnc2N)-c2c(nn(C)c2CC2CC2)C(=O)c2cccnc2-c2ccc(F)cc21 [Example 53, (R)-23-amino-3-(cyclopropylmethyl)-17-fluoro-4-methyl-20-methyl-21-oxa-4,5,12,24-tetraazapentacyclo[20.3.1.0^2,^6.0^8,^13.0^14,^19]hexacosa-1(25),2,5,8,10,12,14,16,18,22(26),23-undecaen-7-one]	50 to 500	B (bin B for high selectivity, ratio≥10-fold but<30)	0.1 to 50	A (bin A for very high selectivity, ratio≥30-fold)	–	> 500
CCc1c2c(nn1C)C(=O)c1cccnc1-c1ccc(F)cc1[C@@H](C)Oc1cc-2cnc1N [Example 54, (R)-23-amino-3-ethyl-17-fluoro-4-methyl-20-methyl-21-oxa-4,5,12,24-tetraazapentacyclo[20.3.1.0^2,^6.0^8,^13.0^14,^19]hexacosa-1(25),2,5,8,10,12,14,16,18,22(26),23-undecaen-7-one]	0.1 to 50	C (bin C for moderate selectivity, ratio≥1 but<10)	0.1 to 50	B (bin B for high selectivity, ratio≥10-fold but<30)	–	0.1 to 50
C[C@H]1Oc2cc(cnc2N)-c2c(C3CCC3)nn(C(=O)N(C)C)c2Cc2cccnc2-c2ccc(F)cc21 [Example 57, (R)-5-(N,N-dimethylcarbamoyl)-3-cyclobutyl-17-fluoro-20-methyl-21-oxa-4,5,12,24-tetraazapentacyclo[20.3.1.0^2,^6.0^8,^13.0^14,^19]hexacosa-1(25),2(6),3,8(13),9,11,14,16,18,22(26),23-undecaen-23-ylamine]	0.1 to 50	–	0.1 to 50	–	–	50 to 500
C[C@H]1Oc2cc(cnc2N)-c2c(C#N)nn(C(=O)N(C)C)c2Cc2cccnc2-c2c(F)cc(F)cc21 [Example 71, N,N-dimethyl-(R)-23-amino-3-cyano-15,17-difluoro-20-methyl-21-oxa-4,5,12,24-tetraazapentacyclo[20.3.1.0^2,^6.0^8,^13.0^14,^19]hexacosa-1(25),2(6),3,8(13),9,11,14,16,18,22(26),23-undecaene-5-carboxamide]	50 to 500	B (bin B for high selectivity, ratio≥10-fold but<30)	50 to 500	B (bin B for high selectivity, ratio≥10-fold but<30)	–	> 500
Cc1ccc2c(n1)-c1ccc(F)cc1[C@@H](C)Oc1cc(cnc1N)-c1c(C#N)nn(C(=O)N(C)C)c1C2 [Example 72, N,N-dimethyl-(R)-23-amino-3-cyano-17-fluoro-11,20-dimethyl-21-oxa-4,5,12,24-tetraazapentacyclo[20.3.1.0^2,^6.0^8,^13.0^14,^19]hexacosa-1(25),2(6),3,8(13),9,11,14,16,18,22(26),23-undecaene-5-carboxamide]	50 to 500	A (bin A for very high selectivity, ratio≥30-fold)	50 to 500	B (bin B for high selectivity, ratio≥10-fold but<30)	–	> 500
Cc1nc2c(s1)C(=O)c1nn(C)c(C#N)c1-c1cnc(N)c(c1)O[C@H](C)c1cc(F)ccc1-2 [Example 73, (R)-22-amino-16-fluoro-4-methyl-10,19-dimethyl-7-oxo-20-oxa-9-thia-4,5,11,23-tetraazapentacyclo[19.3.1.0^2,^6.0^8,^12.0^13,^18]pentacosa-1(24),2,5,8(12),10,13,15,17,21(25),22-decaene-3-carbonitrile]	0.1 to 50	–	0.1 to 50	–	–	50 to 500
